Consider 25 molecules from patent US9169252B2 (BRISTOL-MYERS SQUIBB COMPANY, priority 2014, dated 2015).

Assay [1] has as its target IRAK4 (Homo sapiens (Human), UniProt Q9NWZ3). Nature of the assay: IRAK4 Inhibition Assay. In kind it is biochemical. The following applies: IRAK4 Inhibition Assay; ATP 500 μM; read-out: IRAK4 IC50. As to the method:
The assays were performed in U-bottom 384-well plates. […] The reaction was initiated by the combination of IRAK4 with substrates and test compounds. The reaction mixture was incubated at room temperature for 60 min. and terminated by adding 45 μL of 35 mM EDTA to each sample. The reaction mixture was analyzed on the Caliper LABCHIP® 3000 (Caliper, Hopkinton, Mass.) by electrophoretic separation of the fluorescent substrate and phosphorylated product.

Assay [2] relates to TLR2 induced IL-6 in peripheral blood mononuclear cells (PBMCs). Briefly: PBMC TLR2 Induced IL-6 Assay. As to conditions: Homo sapiens, PBMC, PBMC TLR2 Induced IL-6 Assay, lipoteichoic acid stimulation, IL-6 by ELISA; for EC50: read-out: Cell EC50; for IC50: read-out: Cell IC50. In kind it is cell-based, human. Put shortly: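 Lipoteichoic acid at 10 µg/ml served as TLR2 stimulus for 5 hours, following a 30-minute compound pretreatment at 37° C. Cells were Ficoll-isolated human PBMCs, 250000 cells/well, cultured in RPMI plus 10% heat-inactivated FCS.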
For orientation: In an ELISA, binding on a coated surface is turned into a signal by an enzyme label.

Sequence of IRAK4 (Q9NWZ3 whole entry, species assumed): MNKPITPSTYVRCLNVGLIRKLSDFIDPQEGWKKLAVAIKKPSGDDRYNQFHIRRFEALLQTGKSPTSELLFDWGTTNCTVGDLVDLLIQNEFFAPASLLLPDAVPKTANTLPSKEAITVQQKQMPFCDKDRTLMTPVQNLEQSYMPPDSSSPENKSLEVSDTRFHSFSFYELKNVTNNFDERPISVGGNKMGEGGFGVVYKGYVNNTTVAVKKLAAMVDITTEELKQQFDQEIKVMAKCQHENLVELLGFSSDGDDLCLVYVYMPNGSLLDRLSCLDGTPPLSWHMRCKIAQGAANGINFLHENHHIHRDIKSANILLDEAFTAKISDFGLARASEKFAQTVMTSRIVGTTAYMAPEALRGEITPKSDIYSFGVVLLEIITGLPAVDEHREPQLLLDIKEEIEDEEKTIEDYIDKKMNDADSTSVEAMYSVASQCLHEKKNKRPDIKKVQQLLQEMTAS

The term IC50 denotes the concentration that inhibits the measured activity by half. Usually EC50 stands for the midpoint of the concentration-response curve. In the case of `CC(C)Nc1cc(-n2ccc3cc(C#N)cnc32)ncc1C(=O)NCCCOC(C)(C)C` [Example 15, N-(3-(tert-butoxy)propyl)-6-(5-cyano-1H-pyrrolo[2,3-b]pyridin-1-yl)-4-(isopropylamino)nicotinamide], the half-inhibitory concentration (IC50) in assay [1] was 5.5 nM. For the same molecule, the EC50 in assay [2] turned out to be 171 nM.

As for `CC(C)(O)[C@H](F)CNC(=O)c1cnc(-n2ccc3cc(C#N)cnc32)cc1NC12CCC(O)(CC1)C2` [Example 16, (R)-6-(5-cyano-1H-pyrrolo[2,3-b]pyridin-1-yl)-N-(2-fluoro-3-hydroxy-3-methylbutyl)-4-((4-hydroxybicyclo[2.2.1]heptan-1-yl)amino)nicotinamide], the IC50 in assay [1] is 1.2 nM. Moreover, in assay [2], the EC50 worked out at 15 nM.

For the molecule `CC1(Nc2cc(-n3ccc4cc(C#N)cnc43)ncc2C(=O)NC[C@@H](F)C(C)(C)O)CC1` [Example 17, (R)-6-(5-cyano-1H-pyrrolo[2,3-b]pyridin-1-yl)-N-(2-fluoro-3-hydroxy-3-methylbutyl)-4-((1-methylcyclopropyl)amino)nicotinamide], the IC50 in assay [1] was determined as 1.2 nM. Also, in assay [2], the EC50 turned out to be 42 nM.

`CCCNc1cc(-n2ccc3cc(C#N)cnc32)ncc1C(=O)NC[C@@H](F)C(C)(C)O` [Example 18]: the IC50 in assay [1] is 2.1 nM. Also, the EC50 in assay [2] turned out to be 62 nM.

For `CC(C)CCNc1cc(-n2ccc3cc(C#N)cnc32)ncc1C(=O)NC[C@@H](F)C(C)(C)O` [Example 19, (R)-6-(5-cyano-1H-pyrrolo[2,3-b]pyridin-1-yl)-N-(2-fluoro-3-hydroxy-3-methylbutyl)-4-(isopentylamino) nicotinamide], in assay [1], the IC50 worked out at 3.2 nM. Further, the concentration giving a half-maximal response (EC50) in assay [2] is 252 nM.

As to `CC1(CNc2cc(-n3ccc4cc(C#N)cnc43)ncc2C(=O)NC[C@@H](F)C(C)(C)O)COC1` [Example 20, (R)-6-(5-cyano-1H-pyrrolo[2,3-b]pyridin-1-yl)-N-(2-fluoro-3-hydroxy-3-methylbutyl)-4-(((3-methyloxetan-3-yl)methyl)amino)nicotinamide], the IC50 in assay [1] worked out at 5.7 nM. The EC50 in assay [2] is 497 nM.

Turning to `CC(C)Nc1cc(-n2ccc3cc(C#N)cnc32)ncc1C(=O)NC[C@H](F)C(C)(C)O` [Example 23, (S)-6-(5-cyano-1H-pyrrolo[2,3-b]pyridin-1-yl)-N-(2-fluoro-3-hydroxy-3-methylbutyl)-4-(isopropylamino)nicotinamide], the 50% inhibitory concentration (IC50) in assay [1] came out at 2.6 nM. Also, the 50% effective concentration (EC50) in assay [2] came to 110 nM.

For the molecule `CC(C)(O)[C@H](F)CNC(=O)c1cnc(-n2ccc3cc(C#N)cnc32)cc1NCC1(O)CCC1` [Example 28, (R)-6-(5-cyano-1H-pyrrolo[2,3-b]pyridin-1-yl)-N-(2-fluoro-3-hydroxy-3-methylbutyl)-4-(((1-hydroxycyclobutyl)methyl)amino)nicotinamide], the IC50 in assay [1] was determined as 2.8 nM. Moreover, in assay [2], the EC50 stood at 80 nM.

On to `CC(C)(O)[C@H](F)CNC(=O)c1cnc(-n2ccc3cc(C#N)cnc32)cc1NCC1COC1` [Example 29, (R)-6-(5-cyano-1H-pyrrolo[2,3-b]pyridin-1-yl)-N-(2-fluoro-3-hydroxy-3-methylbutyl)-4-((oxetan-3-ylmethyl)amino) nicotinamide], for which, in assay [1], the IC50 turned out to be 3.7 nM. Also, the EC50 in assay [2] is 141 nM.

Consider `CC(C)(O)[C@H](F)CNC(=O)c1cnc(-n2ccc3cc(C#N)cnc32)cc1N[C@@H]1CCC[C@H]1O` [Example 30, 6-(5-cyano-1H-pyrrolo[2,3-b]pyridin-1-yl)-N—((R)-2-fluoro-3-hydroxy-3-methylbutyl)-4-(((1R,2R)-2-hydroxycyclopentyl)amino)nicotinamide], for which the IC50 in assay [1] was determined as 2.2 nM. Also, in assay [2], the EC50 stood at 101 nM and the 50% inhibitory concentration (IC50) came to 184 nM.

As for `CC(C)(O)[C@H](F)CNC(=O)c1cnc(-n2ccc3cc(Cl)cnc32)cc1NC1CCC1` [Example 31, (R)-6-(5-chloro-1H-pyrrolo[2,3-b]pyridin-1-yl)-4-(cyclobutylamino)-N-(2-fluoro-3-hydroxy-3-methylbutyl)nicotinamide], in assay [1], the IC50 is 3.4 nM. Besides, in assay [2], the EC50 came to 367 nM and the IC50 was found to be 1080 nM.

`CC(C)(O)[C@H](F)CNC(=O)c1cnc(-n2ccc3cc(Cl)cnc32)cc1NC1CCOCC1` [Example 32, (R)-6-(5-chloro-1H-pyrrolo[2,3-b]pyridin-1-yl)-N-(2-fluoro-3-hydroxy-3-methylbutyl)-4-((tetrahydro-2H-pyran-4-yl)amino) nicotinamide]: the values for the IC50 in assay [1] and in assay [2] were 1.9 nM and 562 nM, respectively. The EC50 in assay [2] is 75 nM.

As for `CCNc1cc(-n2ccc3cc(Cl)cnc32)ncc1C(=O)NC[C@@H](F)C(C)(C)O` [Example 33, (R)-6-(5-chloro-1H-pyrrolo[2,3-b]pyridin-1-yl)-4-(ethylamino)-N-(2-fluoro-3-hydroxy-3-methylbutyl)nicotinamide], the IC50 was 7.1 nM in assay [1] and 403 nM in assay [2]. Also, in assay [2], the 50% effective concentration (EC50) came to 661 nM.

As for `CC(C)(O)[C@H](F)CNC(=O)c1cnc(-n2ccc3cc(Cl)cnc32)cc1NC1CC1` [Example 34, (R)-6-(5-chloro-1H-pyrrolo[2,3-b]pyridin-1-yl)-4-(cyclopropylamino)-N-(2-fluoro-3-hydroxy-3-methylbutyl)nicotinamide], the IC50 in assay [1] worked out at 5.3 nM. Besides, in assay [2], the EC50 is 180 nM and the IC50 was determined as 407 nM.

Regarding `CC(C)(O)CNc1cc(-n2ccc3cc(Cl)cnc32)ncc1C(=O)NC[C@@H](F)C(C)(C)O` [Example 35, (R)-6-(5-chloro-1H-pyrrolo[2,3-b]pyridin-1-yl)-N-(2-fluoro-3-hydroxy-3-methylbutyl)-4-((2-hydroxy-2-methylpropyl)amino)nicotinamide], in assay [1], the IC50 turned out to be 2.1 nM. Moreover, in assay [2], the EC50 came out at 117 nM and the IC50 came to 452 nM.

As to `CC(C)(O)CCNC(=O)c1cnc(-n2ccc3cc(Cl)cnc32)cc1NC1CCOCC1` [Example 36, 6-(5-chloro-1H-pyrrolo[2,3-b]pyridin-1-yl)-N-(3-hydroxy-3-methylbutyl)-4-((tetrahydro-2H-pyran-4-yl)amino)nicotinamide], the IC50 in assay [1] amounted to 3.1 nM. Also, in assay [2], the EC50 was determined as 133 nM.

For the molecule `CC(C)Nc1cc(-n2ccc3cc(Cl)ccc32)ncc1C(=O)NC[C@@H](F)C(C)(C)O` [Example 37, (R)-6-(5-chloro-1H-indol-1-yl)-N-(2-fluoro-3-hydroxy-3-methylbutyl)-4-(isopropylamino)nicotinamide], the IC50 in assay [1] worked out at 11.8 nM. Also, in assay [2], the EC50 was 1230 nM.

As to `CC(C)Nc1cc(-n2ccc3cc(F)cnc32)ncc1C(=O)NC[C@@H](F)C(C)(C)O` [Example 38, (R)-6-(5-fluoro-1H-pyrrolo[2,3-b]pyridin-1-yl)-N-(2-fluoro-3-hydroxy-3-methylbutyl)-4-(isopropylamino)nicotinamide], in assay [1], the IC50 came to 1.6 nM. The EC50 in assay [2] was determined as 84 nM.

`CC(C)Nc1cc(-n2ccc3cncnc32)ncc1C(=O)NC[C@@H](F)C(C)(C)O` [Example 39, (R)—N-(2-fluoro-3-hydroxy-3-methylbutyl)-4-(isopropylamino)-6-(7H-pyrrolo[2,3-d]pyrimidin-7-yl)nicotinamide]: in assay [1], the IC50 worked out at 1.1 nM. Besides, in assay [2], the EC50 turned out to be 151 nM and the IC50 worked out at 151 nM.

Regarding `CC(C)(O)[C@H](F)CNC(=O)c1cnc(-n2ccc3cncnc32)cc1NC1CCOCC1` [Example 40, (R)—N-(2-fluoro-3-hydroxy-3-methylbutyl)-6-(7H-pyrrolo[2,3-d]pyrimidin-7-yl)-4-((tetrahydro-2H-pyran-4-yl)amino)nicotinamide], the IC50 in assay [1] turned out to be 2 nM. Besides, in assay [2], the EC50 stood at 175 nM and the IC50 came to 175 nM.

In the case of `CC(C)(O)[C@H](F)CNC(=O)c1cnc(-n2ccc3cncnc32)cc1NC1CC1` [Example 41, (R)-4-(cyclopropylamino)-N-(2-fluoro-3-hydroxy-3-methylbutyl)-6-(7H-pyrrolo[2,3-d]pyrimidin-7-yl)nicotinamide], in assay [1], the IC50 turned out to be 1.9 nM. In assay [2], the EC50 was found to be 220 nM and the IC50 was found to be 220 nM.

In the case of `CC(C)(O)CNc1cc(-n2ccc3cncnc32)ncc1C(=O)NC[C@@H](F)C(C)(C)O` [Example 42, (R)—N-(2-fluoro-3-hydroxy-3-methylbutyl)-4-((2-hydroxy-2-methylpropyl)amino)-6-(7H-pyrrolo[2,3-d]pyrimidin-7-yl)nicotinamide], the results for the IC50 in assay [1] and in assay [2] were 13.6 nM and 940 nM, respectively. In addition, in assay [2], the EC50 stood at 612 nM.

As for `CC(C)(O)CCNC(=O)c1cnc(-n2ccc3cncnc32)cc1NC1CCOCC1` [Example 43, N-(3-hydroxy-3-methylbutyl)-6-(7H-pyrrolo[2,3-d]pyrimidin-7-yl)-4-((tetrahydro-2H-pyran-4-yl)amino)nicotinamide], in assay [1], the IC50 turned out to be 6 nM. Moreover, the EC50 in assay [2] is 316 nM.

As to `CC(C)Nc1cc(-n2ccc3cncnc32)ncc1C(=O)NCCC(C)(C)O` [Example 44, N-(3-hydroxy-3-methylbutyl)-4-(isopropylamino)-6-(7H-pyrrolo[2,3-d]pyrimidin-7-yl)nicotinamide], the IC50 in assay [1] was 4.2 nM. In assay [2], the EC50 is 98 nM.

For `CC(=O)Nc1cnc2c(ccn2-c2cc(NC(C)C)c(C(=O)NC[C@@H](F)C(C)(C)O)cn2)c1` [Example 45, (R)-6-(5-acetamido-1H-pyrrolo[2,3-b]pyridin-1-yl)-N-(2-fluoro-3-hydroxy-3-methylbutyl)-4-(isopropylamino)nicotinamide], the IC50 in assay [1] came out at 23.2 nM. Besides, the EC50 in assay [2] is 148 nM.
